Article PMC10033419, “Blocking NS3–NS4B interaction inhibits dengue virus in non-human primates” (Nature, 2023)
Where “and” joins values, the source holds several entries; their conditions need not be identical. Equal values may be shown once. Read-outs that look alike come from different tables or passages of the source.

Legend:
DENV-2/16681 [1] = assay: NHP DENV-2 study, NS1 ELISA in serum; set-up: species or system rhesus macaques (M. mulatta); conditions: rhesus monkey, in vivo
CHIKV S27 = assay: CPE inhibition assay ATPLite, Huh-7; assay type: cell-based; conditions: Chikungunya virus
in vitro = conditions: African green monkey
in vivo = conditions: rhesus monkey, iv, 1 mg/kg
Protocol: After single intravenous administration, the monkey blood was collected at the BPRC just before dosing, and at 0.05, 0.15, 0.5, 4, 6, 8, 24, 48 and 264 h after dosing. After oral administration, the monkey blood was collected at the BPRC on the first and last day of dosing just before dosing and at 1, 2, 4, 6, 8 and 24 h after dosing that day. Moreover, blood samples were taken on days 3, 6 and 7 after infection just before dosing. For the study at WRAIR, the monkey blood was collected just before dosing and at 1, 4, 8 and 24 h after the first day of dosing and before dosing and at 2, 5, 8, 24 and 96 h after the last day of dosing. Furthermore, blood samples were taken on days 0, 2, 5 and 8 after infection just before dosing. […] A volume of 1 ml blood was collected into a blood collection tube coated with EDTA as anti-coagulant. Within 1 h after collection, the blood samples were centrifuged in a precooled centrifuge for 10 min at 1,500g (4 °C). Within 2 h after blood collection, the plasma samples were stored at −80 °C until shipment. Individual plasma concentration–time profiles were processed for a non-compartmental pharmacokinetics analysis using Phoenix WinNonlin v.6.3. (Certara).

Vero cells = assay: ATPLite cell viability assay; assay type: cell-based, African green monkey; conditions: individual experiments, listed as 64281802-AAA
Protocol: (§1) In parallel, the toxicity was measured using an ATPLite cell viability luminescence assay (PerkinElmer). The assays were performed in three different cell types (Vero, Huh-7 and THP-1/DC-SIGN) as described in ref. [3] to exclude cell-specific activity of the compound.

[2] = ATPLite cell viability assay; assay type: cell-based, African green monkey; conditions: African green monkey, Vero cells
Protocol: as §1

DENV-2 RL strain = assay: Survival study, lethal DENV challenge with 4G2 antibody; assay type: in vivo, AG129 mice
INF-A PR8/1934 = assay: microbe, parasite or virus in culture; assay type: cell-based; conditions: Influenza A virus, PR8, MDCK
DENV-2/16681 [3] = assay: NHP DENV-2 study, anti-DENV IgM ELISA; set-up: species or system rhesus macaques (M. mulatta); conditions: rhesus monkey, in vivo

Question: Which results are given for `COc1cc(N[C@H](C(=O)c2c[nH]c3ccc(OC(F)(F)F)cc23)c2ccc(Cl)cc2OC)cc(S(C)(=O)=O)c1` [JNJ-1802]?
Answer: NS1 protein in serum (DENV-2/16681 [1]): positive NS1 signal; EC50 (CHIKV S27; Huh-7): > 25 µM; EC90 (CHIKV S27; Huh-7, read-out: EC90, Mean): > 25 µM; CC50 (in vitro): 16 µM; AUC(0-inf) (in vivo; female, in vivo): 11800 ng·h/mL; AUC(0-t) (in vivo; female, plasma): 6730 ng·h/mL; clearance (in vivo; female, plasma): 1.67 ± 0.74 mL/min/kg; half-life (in vivo; female, plasma): 50 ± 12 h; Vdssp (in vivo; in vivo): 3.93 ± 1.18 L/kg; CC50 (Vero cells; Vero cells in presence of 50% HS): > 2.5 µM; CC50 (Vero cells; Vero cells, TOX d4 preseeding): 3.08 µM and 2.4 µM and 2.78 µM and 3.52 µM and 2.2 µM and 2.32 µM and 2.27 µM and 2.31 µM and 2.18 µM; CC50 at 4 d ([2]; TOX d4 preseeding, individual experiments): 3.04 µM; CC50 ([2]; Vero): 2.61 ± 0.47 µM; CC50 ([2]; Vero with 50% HS): > 1.5 µM; survival (DENV-2 RL strain; 0.6–20 mg per kg per day, b.i.d., vehicle 0%): ≥ 80%; % Survival (DENV-2 RL strain; 802R_0.3, BID, d p.i. 0): 100%; % Survival (DENV-2 RL strain; 802R_0.3, BID, d p.i. 1): 100%; % Survival (DENV-2 RL strain; 802R_0.3, BID, d p.i. 4): 100%; % Survival (DENV-2 RL strain; 802R_0.3, BID, d p.i. 5): 100%; % Survival (DENV-2 RL strain; 802R_0.3, BID, d p.i. 6): 100%; % Survival (DENV-2 RL strain; 802R_0.3, BID, d p.i. 7): 100%; % Survival (DENV-2 RL strain; 802R_0.3, BID, d p.i. 8): 100%; % Survival (DENV-2 RL strain; 802R_0.3, BID, d p.i. 9): 100%; % Survival (DENV-2 RL strain; 802R_0.3, BID, d p.i. 10): 100%; % Survival (DENV-2 RL strain; 802R_0.3, BID, d p.i. 11): 100%; % Survival (DENV-2 RL strain; 802R_0.3, BID, d p.i. 12): 100%; % Survival (DENV-2 RL strain; 802R_0.3, BID, d p.i. 13): 100%; % Survival (DENV-2 RL strain; 802R_0.3, BID, d p.i. 14): 100%; % Survival (DENV-2 RL strain; 802R_0.3, BID, d p.i. 15): 100%; % Survival (DENV-2 RL strain; 802R_0.3, BID, d p.i. 16): 100%; % Survival (DENV-2 RL strain; 802R_0.3, BID, d p.i. 17): 90%; % Survival (DENV-2 RL strain; 802R_0.3, BID, d p.i. 18): 90%; % Survival (DENV-2 RL strain; 802R_0.3, BID, d p.i. 19): 90%; % Survival (DENV-2 RL strain; 802R_0.3, BID, d p.i. 20): 90%; % Survival (DENV-2 RL strain; 802R_0.3, BID, d p.i. 21): 90%; % Survival (DENV-2 RL strain; 802R_0.3, BID, d p.i. 22): 90%; % Survival (DENV-2 RL strain; 802R_0.3, BID, d p.i. 23): 90%; % Survival (DENV-2 RL strain; 802R_0.3, BID, d p.i. 24): 90%; % Survival (DENV-2 RL strain; 802R_0.3, BID, d p.i. 25 = end of study): 90%; % Survival (DENV-2 RL strain; 802R_1, BID, d p.i. 0): 100%; % Survival (DENV-2 RL strain; 802R_1, BID, d p.i. 1): 100%; % Survival (DENV-2 RL strain; 802R_1, BID, d p.i. 2): 100%; % Survival (DENV-2 RL strain; 802R_1, BID, d p.i. 4): 100%; % Survival (DENV-2 RL strain; 802R_1, BID, d p.i. 5): 100%; % Survival (DENV-2 RL strain; 802R_1, BID, d p.i. 6): 100%; % Survival (DENV-2 RL strain; 802R_1, BID, d p.i. 7): 100%; % Survival (DENV-2 RL strain; 802R_1, BID, d p.i. 8): 100%; % Survival (DENV-2 RL strain; 802R_1, BID, d p.i. 9): 100%; % Survival (DENV-2 RL strain; 802R_1, BID, d p.i. 10): 100%; % Survival (DENV-2 RL strain; 802R_1, BID, d p.i. 11): 100%; % Survival (DENV-2 RL strain; 802R_1, BID, d p.i. 12): 100%; % Survival (DENV-2 RL strain; 802R_1, BID, d p.i. 13): 100%; % Survival (DENV-2 RL strain; 802R_1, BID, d p.i. 14): 100%; % Survival (DENV-2 RL strain; 802R_1, BID, d p.i. 15): 100%; % Survival (DENV-2 RL strain; 802R_1, BID, d p.i. 16): 100%; % Survival (DENV-2 RL strain; 802R_1, BID, d p.i. 17): 100%; % Survival (DENV-2 RL strain; 802R_1, BID, d p.i. 18): 100%; % Survival (DENV-2 RL strain; 802R_1, BID, d p.i. 19): 100%; % Survival (DENV-2 RL strain; 802R_1, BID, d p.i. 20): 100%; % Survival (DENV-2 RL strain; 802R_1, BID, d p.i. 21): 100%; % Survival (DENV-2 RL strain; 802R_1, BID, d p.i. 22): 100%; % Survival (DENV-2 RL strain; 802R_1, BID, d p.i. 23): 100%; % Survival (DENV-2 RL strain; 802R_1, BID, d p.i. 24): 100%; % Survival (DENV-2 RL strain; 802R_1, BID, d p.i. 25 = end of study): 100%; % Survival (DENV-2 RL strain; 802R_3, BID, d p.i. 0): 100%; % Survival (DENV-2 RL strain; 802R_3, BID, d p.i. 1): 100%; % Survival (DENV-2 RL strain; 802R_3, BID, d p.i. 2): 100%; % Survival (DENV-2 RL strain; 802R_3, BID, d p.i. 4): 100%; % Survival (DENV-2 RL strain; 802R_3, BID, d p.i. 5): 100%; % Survival (DENV-2 RL strain; 802R_3, BID, d p.i. 6): 100%; % Survival (DENV-2 RL strain; 802R_3, BID, d p.i. 7): 100%; % Survival (DENV-2 RL strain; 802R_3, BID, d p.i. 8): 100%; % Survival (DENV-2 RL strain; 802R_3, BID, d p.i. 9): 100%; % Survival (DENV-2 RL strain; 802R_3, BID, d p.i. 10): 100%; % Survival (DENV-2 RL strain; 802R_3, BID, d p.i. 11): 100%; % Survival (DENV-2 RL strain; 802R_3, BID, d p.i. 12): 100%; % Survival (DENV-2 RL strain; 802R_3, BID, d p.i. 13): 100%; % Survival (DENV-2 RL strain; 802R_3, BID, d p.i. 14): 100%; % Survival (DENV-2 RL strain; 802R_3, BID, d p.i. 15): 100%; % Survival (DENV-2 RL strain; 802R_3, BID, d p.i. 16): 100%; % Survival (DENV-2 RL strain; 802R_3, BID, d p.i. 17): 100%; % Survival (DENV-2 RL strain; 802R_3, BID, d p.i. 18): 100%; % Survival (DENV-2 RL strain; 802R_3, BID, d p.i. 19): 100%; % Survival (DENV-2 RL strain; 802R_3, BID, d p.i. 20): 100%; % Survival (DENV-2 RL strain; 802R_3, BID, d p.i. 21): 100%; % Survival (DENV-2 RL strain; 802R_3, BID, d p.i. 22): 90%; % Survival (DENV-2 RL strain; 802R_3, BID, d p.i. 23): 90%; % Survival (DENV-2 RL strain; 802R_3, BID, d p.i. 24): 80%; % Survival (DENV-2 RL strain; 802R_3, BID, d p.i. 25 = end of study): 80%; % Survival (DENV-2 RL strain; 802R_10, BID, d p.i. 0): 100%; % Survival (DENV-2 RL strain; 802R_10, BID, d p.i. 1): 100%; % Survival (DENV-2 RL strain; 802R_10, BID, d p.i. 2): 100%; % Survival (DENV-2 RL strain; 802R_10, BID, d p.i. 4): 100%; % Survival (DENV-2 RL strain; 802R_10, BID, d p.i. 5): 100%; % Survival (DENV-2 RL strain; 802R_10, BID, d p.i. 6): 100%; % Survival (DENV-2 RL strain; 802R_10, BID, d p.i. 7): 100%; % Survival (DENV-2 RL strain; 802R_10, BID, d p.i. 8): 100%; % Survival (DENV-2 RL strain; 802R_10, BID, d p.i. 9): 100%; % Survival (DENV-2 RL strain; 802R_10, BID, d p.i. 10): 100%; % Survival (DENV-2 RL strain; 802R_10, BID, d p.i. 11): 100%; % Survival (DENV-2 RL strain; 802R_10, BID, d p.i. 12): 100%; % Survival (DENV-2 RL strain; 802R_10, BID, d p.i. 13): 100%; % Survival (DENV-2 RL strain; 802R_10, BID, d p.i. 14): 100%; % Survival (DENV-2 RL strain; 802R_10, BID, d p.i. 15): 80%; % Survival (DENV-2 RL strain; 802R_10, BID, d p.i. 16): 80%; % Survival (DENV-2 RL strain; 802R_10, BID, d p.i. 17): 80%; % Survival (DENV-2 RL strain; 802R_10, BID, d p.i. 18): 80%; % Survival (DENV-2 RL strain; 802R_10, BID, d p.i. 19): 80%; % Survival (DENV-2 RL strain; 802R_10, BID, d p.i. 20): 80%; % Survival (DENV-2 RL strain; 802R_10, BID, d p.i. 21): 80%; % Survival (DENV-2 RL strain; 802R_10, BID, d p.i. 22): 80%; % Survival (DENV-2 RL strain; 802R_10, BID, d p.i. 23): 80%; % Survival (DENV-2 RL strain; 802R_10, BID, d p.i. 24): 80%; % Survival (DENV-2 RL strain; 802R_10, BID, d p.i. 25 = end of study): 80%; EC50 (INF-A PR8/1934): > 2.6 µM; EC50 (INF-A PR8/1934; read-out: EC50, Mean): > 25 µM; EC90 (INF-A PR8/1934; read-out: EC90, Mean): > 25 µM; IgG and IgM seroconversion (DENV-2/16681 [3]): occurred in all of the animals; IgM seroconversion (DENV-2/16681 [3]): occurred at later timepoints; animals with detectable anti-DENV IgM (DENV-2/16681 [3]): one out of three
